Reference: PubChem BioAssay AID220 (DTP/NCI, 2004)
“And” between values parts separate entries of the source, which are not always exact repeats. Equal values may be shown once. Inconclusive results are not listed.

System: CD8F1 mice, subcutaneous mammary adenocarcinoma, T/C%
Experiment: NCI In Vivo Anticancer Drug Screen. Data for tumor model Mammary Adenocarcinoma CD8F1 (subcutaneous) in CD8F1
Details: higher = larger tumour
Method in brief: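 Transplantable tumors were established in mice, animals were dosed with compound or vehicle, and survival or tumor size was then measured in both groups. The treated result was divided by the control result.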

[1] = endpoint: median tumor weight (est.), dose: 1.25 mg/kg/injection, schedule: Q07DX005 (ip), vehicle: saline
[2] = endpoint: median tumor weight (est.), dose: 2.5 mg/kg/injection, schedule: Q07DX005 (ip), vehicle: saline
[3] = endpoint: median tumor weight (est.), dose: 3.0 mg/kg/injection, schedule: Q07DX005 (ip), vehicle: saline
[4] = endpoint: median tumor weight (est.), dose: 6.0 mg/kg/injection, schedule: Q07DX005 (ip), vehicle: saline
[5] = endpoint: median tumor weight (est.), dose: 2.0 mg/kg/injection, schedule: Q07DX005 (ip), vehicle: saline
[6] = endpoint: median tumor weight (est.), dose: 4.0 mg/kg/injection, schedule: Q07DX005 (ip), vehicle: saline
[7] = endpoint: median tumor weight (est.), dose: 8.0 mg/kg/injection, schedule: Q07DX005 (ip), vehicle: saline

`COc1cccc2c1C(=O)c1c(O)c3c(c(O)c1C2=O)C[C@@](O)(C(=O)CO)C[C@@H]3OC1CC(N)C(O)C(C)O1` (some centres undefined) was tested, and the T/C (endpoint: mean tumor weight, dose: 0.25 mg/kg/injection, schedule: Q01DX009 (ip), vehicle: saline) was 38 % of control, the T/C (endpoint: mean tumor weight, dose: 0.5 mg/kg/injection, schedule: Q01DX009 (ip), vehicle: saline) was 17 % of control and the T/C (endpoint: mean tumor weight, dose: 0.5 mg/kg/injection, schedule: Q07DX005 (ip), vehicle: saline) was 85 % of control. The T/C (endpoint: mean tumor weight, dose: 0.5 mg/kg/injection, schedule: Q07DX006 (ip), vehicle: saline) was 45 % of control and 55 % of control and 66 % of control, the T/C (endpoint: mean tumor weight, dose: 0.75 mg/kg/injection, schedule: Q07DX006 (ip), vehicle: saline) was 46 % of control and the T/C (endpoint: mean tumor weight, dose: 1.0 mg/kg/injection, schedule: Q01DX009 (ip), vehicle: saline) was 2 % of control. The T/C (endpoint: mean tumor weight, dose: 1.0 mg/kg/injection, schedule: Q07DX005 (ip), vehicle: saline) was 89 % of control, the T/C (endpoint: mean tumor weight, dose: 1.5 mg/kg/injection, schedule: Q07DX006 (ip), vehicle: saline) was 42 % of control and the T/C (endpoint: mean tumor weight, dose: 2.0 mg/kg/injection, schedule: Q07DX005 (ip), vehicle: saline) was 40 % of control. For the same molecule, the T/C (endpoint: mean tumor weight, dose: 2.5 mg/kg/injection, schedule: Q07DX006 (ip), vehicle: saline) was 6 % of control, the T/C (endpoint: mean tumor weight, dose: 3.0 mg/kg/injection, schedule: Q07DX006 (ip), vehicle: saline) was 3 % of control and the T/C (endpoint: mean tumor weight, dose: 4.0 mg/kg/injection, schedule: Q07DX006 (ip), vehicle: saline) was 1 % of control. The T/C (endpoint: median tumor weight (est.), dose: 0.25 mg/kg/injection, schedule: Q07DX005 (ip), vehicle: saline) was 208 % of control and 84 % of control, the T/C (endpoint: median tumor weight (est.), dose: 0.37 mg/kg/injection, schedule: Q07DX005 (ip), vehicle: water) was 84 % of control and the T/C (endpoint: median tumor weight (est.), dose: 0.75 mg/kg/injection, schedule: Q07DX005 (ip), vehicle: saline) was 62 % of control. For the same molecule, the T/C (endpoint: median tumor weight (est.), dose: 0.75 mg/kg/injection, schedule: Q07DX005 (ip), vehicle: water) was 47 % of control, the T/C [1] was 40 % of control and the T/C (endpoint: median tumor weight (est.), dose: 1.5 mg/kg/injection, schedule: Q07DX005 (ip), vehicle: saline) was 85 % of control. The T/C (endpoint: median tumor weight (est.), dose: 1.5 mg/kg/injection, schedule: Q07DX005 (ip), vehicle: water) was 81 % of control, the T/C (endpoint: median tumor weight (est.), dose: 1.8 mg/kg/injection, schedule: Q07DX005 (ip), vehicle: saline) was 77 % of control and the T/C [2] was 14 % of control. For the same molecule, the T/C (endpoint: median tumor weight (est.), dose: 2.7 mg/kg/injection, schedule: Q07DX005 (ip), vehicle: saline) was 51 % of control, the T/C [3] was 29 % of control and the T/C (endpoint: median tumor weight (est.), dose: 4.4 mg/kg/injection, schedule: Q01DX001 (ip), vehicle: saline) was 37 % of control. The T/C (endpoint: median tumor weight (est.), dose: 4.4 mg/kg/injection, schedule: Q07DX004 (ip), vehicle: saline) was 11 % of control, the T/C [4] was 30 % of control and the T/C (endpoint: median tumor weight (est.), dose: 6.7 mg/kg/injection, schedule: Q01DX001 (ip), vehicle: saline) was 28 % of control. The T/C (endpoint: median tumor weight (est.), dose: 6.7 mg/kg/injection, schedule: Q07DX004 (ip), vehicle: saline) was 5 % of control, the T/C (endpoint: median tumor weight (est.), dose: 8.0 mg/kg/injection, schedule: Q07DX005 (ip), vehicle: water) was 1 % of control and the T/C (endpoint: median tumor weight (est.), dose: 10.0 mg/kg/injection, schedule: Q01DX001 (ip), vehicle: saline) was 15 % of control. For the same molecule, the T/C (endpoint: median tumor weight (est.), dose: 15.0 mg/kg/injection, schedule: Q01DX001 (ip), vehicle: saline) was 6 % of control, the T/C (endpoint: median tumor weight change, dose: 1.25 mg/kg/injection, schedule: Q01DX001 (ip), vehicle: water) was 115 % of control and the T/C (endpoint: median tumor weight change, dose: 2.5 mg/kg/injection, schedule: Q01DX001 (ip), vehicle: water) was 81 % of control. The T/C (endpoint: median tumor weight change, dose: 3.75 mg/kg/injection, schedule: Q01DX001 (ip), vehicle: saline) was 96 % of control, the T/C (endpoint: median tumor weight change, dose: 4.4 mg/kg/injection, schedule: Q01DX001 (ip), vehicle: water) was 27 % of control and the T/C (endpoint: median tumor weight change, dose: 5.0 mg/kg/injection, schedule: Q01DX001 (ip), vehicle: water) was 18 % of control. For the same molecule, the T/C (endpoint: median tumor weight change, dose: 6.7 mg/kg/injection, schedule: Q01DX001 (ip), vehicle: water) was -5 % of control, the T/C (endpoint: median tumor weight change, dose: 7.5 mg/kg/injection, schedule: Q01DX001 (ip), vehicle: saline) was 82 % of control and the T/C (endpoint: median tumor weight change, dose: 15.0 mg/kg/injection, schedule: Q01DX001 (ip), vehicle: water) was -49 % of control.

In the case of `COC1(OC)C2C=CC1CC2`, the T/C (endpoint: median tumor weight change, dose: 62.5 mg/kg/injection, schedule: Q01DX001 (ip), vehicle: saline with Tween-80) is reported as 94 % of control, the T/C (endpoint: median tumor weight change, dose: 125.0 mg/kg/injection, schedule: Q01DX001 (ip), vehicle: saline with Tween-80) is reported as 82 % of control and the T/C (endpoint: median tumor weight change, dose: 250.0 mg/kg/injection, schedule: Q01DX001 (ip), vehicle: saline with Tween-80) is reported as 107 % of control. The T/C (endpoint: median tumor weight change, dose: 500.0 mg/kg/injection, schedule: Q01DX001 (ip), vehicle: saline with Tween-80) was 58 % of control.

For `O=NN(CCCl)C(=O)NC1OC(CO)C(O)C(O)C1O` (centres undefined), the T/C [1] was 113 % of control, the T/C [2] was 91 % of control and the T/C (endpoint: median tumor weight (est.), dose: 5.0 mg/kg/injection, schedule: Q07DX005 (ip), vehicle: saline) was 106 % of control. For the same molecule, the T/C (endpoint: median tumor weight (est.), dose: 10.0 mg/kg/injection, schedule: Q07DX005 (ip), vehicle: saline) was 29 % of control.

In the case of `CCCCCCCC(=O)OCC(=O)[C@]1(O)Cc2c(O)c3c(c(O)c2[C@@H](OC2CC(N)C(O)C(C)O2)C1)C(=O)c1c(OC)cccc1C3=O` (some centres undefined), the T/C (endpoint: mean tumor weight, dose: 1.0 mg/kg/injection, schedule: Q07DX006 (ip), vehicle: saline) is reported as 62 % of control, the T/C (endpoint: mean tumor weight, dose: 2.0 mg/kg/injection, schedule: Q07DX006 (ip), vehicle: saline) is reported as 19 % of control and the T/C (endpoint: median tumor weight (est.), dose: 1.0 mg/kg/injection, schedule: Q07DX005 (ip), vehicle: saline) is reported as 64 % of control. For the same molecule, the T/C [5] was 64 % of control, the T/C [6] was 66 % of control and the T/C [7] was 11 % of control.

With `CCOC(=O)c1ccc(NN=NCCF)cc1` the T/C (endpoint: median tumor weight change, dose: 15.6 mg/kg/injection, schedule: Q01DX001 (ip), vehicle: distilled water + Tween-80) was 80 % of control, the T/C (endpoint: median tumor weight change, dose: 31.25 mg/kg/injection, schedule: Q01DX001 (ip), vehicle: distilled water + Tween-80) was 65 % of control and the T/C (endpoint: median tumor weight change, dose: 62.5 mg/kg/injection, schedule: Q01DX001 (ip), vehicle: distilled water + Tween-80) was 114 % of control. For the same molecule, the T/C (endpoint: median tumor weight change, dose: 125.0 mg/kg/injection, schedule: Q01DX001 (ip), vehicle: distilled water + Tween-80) was 56 % of control.

`COc1cccc2c1C(=O)c1c(O)c3c(c(O)c1C2=O)C[C@@](O)(C(O)CO)C[C@@H]3OC1CC(N)C(O)C(C)O1` (some centres undefined) was tested, and the T/C (endpoint: mean tumor weight, dose: 6.0 mg/kg/injection, schedule: Q07DX006 (ip), vehicle: saline) was 33 % of control, the T/C (endpoint: mean tumor weight, dose: 12.0 mg/kg/injection, schedule: Q07DX006 (ip), vehicle: saline) was 45 % of control and the T/C [3] was 77 % of control. For the same molecule, the T/C [4] was 48 % of control and the T/C (endpoint: median tumor weight (est.), dose: 12.0 mg/kg/injection, schedule: Q07DX005 (ip), vehicle: saline) was 26 % of control.

`Cc1cc(=O)n2c3c(c4c(cc13)c(CN(C)C)cc(=O)n4C)OC2` was tested, and the T/C (endpoint: median tumor weight change, dose: 62.0 mg/kg/injection, schedule: Q01DX001 (ip), vehicle: saline with Tween-80) was 190 % of control.

`COc1c(O)c2c(c3cc(C(=O)N4CCc5c4c(O)c(OC)c4[nH]c(C(=O)N6CC7CC78C6=CC(=O)c6[nH]cc(C)c68)cc54)[nH]c13)CCN2C(N)=O` (centres undefined) was tested, and the T/C (endpoint: median tumor weight (est.), dose: 6.25 micrograms/kg/injection, schedule: Q07DX005 (ip), vehicle: DMSO) was 97 % of control and the T/C (endpoint: median tumor weight (est.), dose: 12.5 micrograms/kg/injection, schedule: Q07DX005 (ip), vehicle: DMSO) was 42 % of control.

With `Cc1c(N)nc(C(CC(N)=O)NCC(N)C(N)=O)nc1C(=O)NC(C(=O)NC(C)C(O)CC(=O)NC(C(=O)NC(OC1OC(C)C(N)C(O)C1O)C(O)c1nc(-c2nc(C(=O)NCCCC(N)CC(=O)NCCCNCCCCN)cs2)cs1)C(C)O)C(OC1OC(CO)C(O)C(O)C1OC1OC(CO)C(O)C(OC(N)=O)C1O)c1cnc[nH]1` (centres undefined) the T/C [5] was 15 % of control, the T/C [6] was 20 % of control and the T/C [7] was 10 % of control.

For `COC(=O)[C@@H]1c2cc3c(c(O)c2[C@@H](OC)C[C@@]1(C)O)C(=O)c1c(O)cc2c(c1C3=O)OC1O[C@@]2(C)[C@H](O)[C@@H](N(C)C)[C@@H]1O`, the T/C (endpoint: median tumor weight (est.), dose: 12.5 mg/kg/injection, schedule: Q07DX005 (ip), vehicle: suspension in saline) was 73 % of control, the T/C (endpoint: median tumor weight (est.), dose: 50.0 mg/kg/injection, schedule: Q07DX005 (ip), vehicle: suspension in saline) was 61 % of control and 66 % of control and the T/C (endpoint: median tumor weight (est.), dose: 100.0 mg/kg/injection, schedule: Q07DX005 (ip), vehicle: suspension in saline) was 151 % of control.

With `O=[N+]([O-])O.[Ga]` the T/C (endpoint: mean tumor weight, dose: 75.0 mg/kg/injection, schedule: Q01DX009 (ip), vehicle: saline) was 120 % of control, the T/C (endpoint: median tumor weight (est.), dose: 6.25 mg/kg/injection, schedule: Q07DX005 (ip), vehicle: saline) was 94 % of control and the T/C (endpoint: median tumor weight (est.), dose: 12.5 mg/kg/injection, schedule: Q07DX005 (ip), vehicle: saline) was 114 % of control. The T/C (endpoint: median tumor weight (est.), dose: 25.0 mg/kg/injection, schedule: Q04DX005 (ip), vehicle: saline) was 91 % of control, the T/C (endpoint: median tumor weight (est.), dose: 25.0 mg/kg/injection, schedule: Q07DX004 (ip), vehicle: saline) was 120 % of control and the T/C (endpoint: median tumor weight (est.), dose: 25.0 mg/kg/injection, schedule: Q07DX005 (ip), vehicle: saline) was 120 % of control. The T/C (endpoint: median tumor weight (est.), dose: 50.0 mg/kg/injection, schedule: Q07DX004 (ip), vehicle: saline) was 184 % of control and the T/C (endpoint: median tumor weight (est.), dose: 100.0 mg/kg/injection, schedule: Q04DX005 (ip), vehicle: saline) was 153 % of control.
